In patent publication US9539260B2, “Dihydro-benzo-oxazine and dihydro-pyrido-oxazine derivatives” (Novartis AG, priority 2012, dated 2017):
Blank lines part the entries; values can stand above or below the compound they belong to.

Key:
PI3K delta = PI3K delta (Homo sapiens (Human), UniProt O00329); assay: Enzymatic PI3K delta isoform inhibition (lipid kinase activity, Kinase-Glo luminescence); format: biochemical; settings: Enzymatic assay
Summary of the method: (§1)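 IC50s derive from 4-parameter logistic fits of % inhibition across 8 concentrations (usually 10 to 0.003 μM). Lipid kinase reaction: PI3K (10 nM) plus phosphatidylinositol (5 μg/mL) started with 2 μM ATP, stopped near 50% ATP depletion; leftover ATP quantified by Kinase-Glo luminescence.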

PI3K alpha = PI3K alpha (Homo sapiens (Human), UniProt P42336); assay: Enzymatic PI3K alpha isoform inhibition (lipid kinase activity, Kinase-Glo luminescence); format: biochemical; settings: Enzymatic assay
PI3K alpha, sequence (P42336 other isoform, or with tags, fused parts or gaps): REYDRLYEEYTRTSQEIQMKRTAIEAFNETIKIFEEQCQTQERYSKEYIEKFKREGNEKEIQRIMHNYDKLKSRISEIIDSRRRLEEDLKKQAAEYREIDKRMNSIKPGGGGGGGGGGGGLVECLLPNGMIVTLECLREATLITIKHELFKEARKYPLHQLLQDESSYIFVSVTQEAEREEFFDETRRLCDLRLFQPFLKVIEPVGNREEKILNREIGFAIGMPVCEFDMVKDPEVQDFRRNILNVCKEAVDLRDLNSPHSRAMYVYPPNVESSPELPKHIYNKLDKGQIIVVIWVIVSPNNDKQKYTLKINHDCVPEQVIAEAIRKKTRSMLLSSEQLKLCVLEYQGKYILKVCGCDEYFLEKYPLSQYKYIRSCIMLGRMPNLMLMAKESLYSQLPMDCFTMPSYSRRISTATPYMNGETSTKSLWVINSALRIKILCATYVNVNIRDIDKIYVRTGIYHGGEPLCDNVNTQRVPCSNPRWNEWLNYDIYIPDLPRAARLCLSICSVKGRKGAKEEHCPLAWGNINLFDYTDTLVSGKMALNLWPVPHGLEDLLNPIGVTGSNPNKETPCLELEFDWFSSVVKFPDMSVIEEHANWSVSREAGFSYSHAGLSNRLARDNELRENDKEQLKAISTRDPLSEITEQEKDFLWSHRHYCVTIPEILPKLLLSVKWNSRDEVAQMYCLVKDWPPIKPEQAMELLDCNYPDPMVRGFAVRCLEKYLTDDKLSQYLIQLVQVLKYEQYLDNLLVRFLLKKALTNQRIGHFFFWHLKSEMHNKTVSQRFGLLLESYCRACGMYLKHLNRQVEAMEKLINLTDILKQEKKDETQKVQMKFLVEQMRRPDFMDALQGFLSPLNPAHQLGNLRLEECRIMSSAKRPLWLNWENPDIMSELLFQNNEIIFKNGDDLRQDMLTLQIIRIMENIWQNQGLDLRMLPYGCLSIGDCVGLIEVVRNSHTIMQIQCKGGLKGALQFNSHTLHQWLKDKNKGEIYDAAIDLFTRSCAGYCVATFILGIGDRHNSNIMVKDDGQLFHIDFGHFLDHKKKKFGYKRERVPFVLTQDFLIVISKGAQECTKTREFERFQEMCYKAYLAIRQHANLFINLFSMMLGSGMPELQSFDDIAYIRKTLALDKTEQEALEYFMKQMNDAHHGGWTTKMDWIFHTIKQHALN
Summary of the method: as §1

PI3K delta, sequence (O00329 other isoform, or with tags, fused parts or gaps linker GGGGGG): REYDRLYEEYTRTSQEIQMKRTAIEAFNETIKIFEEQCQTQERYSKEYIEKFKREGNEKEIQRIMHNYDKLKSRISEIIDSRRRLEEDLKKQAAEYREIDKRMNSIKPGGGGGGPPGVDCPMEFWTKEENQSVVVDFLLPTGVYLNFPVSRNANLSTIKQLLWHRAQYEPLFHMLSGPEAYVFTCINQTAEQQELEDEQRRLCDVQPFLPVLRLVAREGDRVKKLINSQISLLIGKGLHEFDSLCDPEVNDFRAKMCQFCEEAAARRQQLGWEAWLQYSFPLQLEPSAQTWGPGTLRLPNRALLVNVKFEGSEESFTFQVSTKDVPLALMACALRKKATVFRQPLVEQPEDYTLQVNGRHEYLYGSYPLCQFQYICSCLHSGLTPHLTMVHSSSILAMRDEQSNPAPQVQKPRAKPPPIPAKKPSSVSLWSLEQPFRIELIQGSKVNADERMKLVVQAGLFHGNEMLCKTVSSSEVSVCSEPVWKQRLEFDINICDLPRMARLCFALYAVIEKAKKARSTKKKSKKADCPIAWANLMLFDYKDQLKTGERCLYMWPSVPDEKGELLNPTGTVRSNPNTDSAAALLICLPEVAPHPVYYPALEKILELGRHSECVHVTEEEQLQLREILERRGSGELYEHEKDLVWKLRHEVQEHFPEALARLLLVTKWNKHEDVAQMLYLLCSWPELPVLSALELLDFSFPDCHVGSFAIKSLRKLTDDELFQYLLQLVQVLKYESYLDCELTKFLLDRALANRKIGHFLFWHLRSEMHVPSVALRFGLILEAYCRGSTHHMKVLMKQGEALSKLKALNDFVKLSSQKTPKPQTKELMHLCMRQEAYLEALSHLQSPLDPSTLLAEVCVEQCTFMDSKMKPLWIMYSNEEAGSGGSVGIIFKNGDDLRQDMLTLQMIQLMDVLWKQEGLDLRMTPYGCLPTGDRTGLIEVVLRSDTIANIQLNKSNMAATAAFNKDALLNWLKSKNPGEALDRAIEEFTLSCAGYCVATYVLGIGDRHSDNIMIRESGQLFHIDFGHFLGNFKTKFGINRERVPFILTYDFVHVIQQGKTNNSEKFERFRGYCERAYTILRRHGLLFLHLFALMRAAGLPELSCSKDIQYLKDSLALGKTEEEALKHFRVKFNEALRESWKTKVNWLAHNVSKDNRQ

SMILES: COc1ncc(N2CCOc3cnc(O[C@H]4CCN(C(=O)C5CCS(=O)(=O)CC5)C4)cc32)cc1C(F)(F)F [Example E6, (1,1-Dioxo-hexahydro-1lambda*6*-thiopyran-4-yl)-{(S)-3-[1-(6-methoxy-5-trifluoromethyl-pyridin-3-yl)-2,3-dihydro-1H-pyrido[3,4-b][1,4]oxazin-7-yloxy]-pyrrolidin-1-yl}-methanone]
- IC50 (PI3K delta): 9 nM
- IC50 (PI3K alpha): 341 nM

SMILES: COc1ncc(N2CCOc3cnc(O[C@H]4CCN(C(=O)c5cn(C)cn5)C4)cc32)cc1C(F)(F)F [Example E7, {(S)-3-[1-(6-Methoxy-5-trifluoromethyl-pyridin-3-yl)-2,3-dihydro-1H-pyrido[3,4-b][1,4]oxazin-7-yloxy]-pyrrolidin-1-yl}-(1-methyl-1H-imidazol-4-yl)-methanone]
- IC50 (PI3K delta): 22 nM
- IC50 (PI3K alpha): 133 nM

SMILES: Cc1cc(N2CCOc3cnc(O[C@H]4CCN(C(=O)C5CCOCC5)C4)cc32)cnc1OC(F)F [Example E9, {(S)-3-[1-(6-Difluoromethoxy-5-methyl-pyridin-3-yl)-2,3-dihydro-1H-pyrido[3,4-b][1,4]oxazin-7-yloxy]pyrrolidin-1-yl}-(tetrahydro-pyran-4-yl)-methanone]
- IC50 (PI3K delta): 7 nM
- IC50 (PI3K alpha): 593 nM

SMILES: Cc1cc(N2CCOc3cnc(O[C@H]4CCN(C(=O)c5cn(C)cn5)C4)cc32)cnc1OC(F)F [Example E10, {(S)-3-[1-(6-Difluoromethoxy-5-methyl-pyridin-3-yl)-2,3-dihydro-1H-pyrido[3,4-b][1,4]oxazin-7-yloxy]-pyrrolidin-1-yl}-(1-methyl-1H-imidazol-4-yl)-methanone]
- IC50 (PI3K delta): 13 nM
- IC50 (PI3K alpha): 229 nM

SMILES: Cc1cc(N2CCOc3cnc(O[C@H]4CCN(C(=O)C5CC5)C4)cc32)cnc1OC(F)F [Example E11, Cyclopropyl-{(S)-3-[1-(6-difluoromethoxy-5-methyl-pyridin-3-yl)-2,3-dihydro-1H-pyrido[3,4-b][1,4]oxazin-7-yloxy]-pyrrolidin-1-yl}-methanone]
- IC50 (PI3K delta): < 3 nM
- IC50 (PI3K alpha): 377 nM

SMILES: COc1ncc(N2CCOc3cnc(OC4CCN(C(=O)C5CCS(=O)(=O)CC5)C4)cc32)cc1C (stereo not drawn) [Example F12, (1,1-Dioxo-hexahydro-1lambda*6*-thiopyran-4-yl)-{3-[1-(6-methoxy-5-methyl-pyridin-3-yl)-2,3-dihydro-1H-pyrido[3,4-b][1,4]oxazin-7-yloxy]-pyrrolidin-1-yl}-methanone]
- IC50 (PI3K delta): < 3 nM
- IC50 (PI3K alpha): 440 nM

SMILES: COc1ncc(N2CCOc3cnc(O[C@H]4CCN(C(=O)c5cn6ccsc6n5)C4)cc32)cc1C(F)(F)F [Example G1, Imidazo[2,1-b]thiazol-6-yl-{(S)-3-[1-(6-methoxy-5-trifluoromethyl-pyridin-3-yl)-2,3-dihydro-1H-pyrido[3,4-b][1,4]oxazin-7-yloxy]-pyrrolidin-1-yl}-methanone]
- IC50 (PI3K delta): 17 nM
- IC50 (PI3K alpha): 49 nM

SMILES: COc1ncc(N2CCOc3cnc(O[C@@H]4CCN(C(=O)C5CCS(=O)(=O)CC5)C4)cc32)cc1C [Example G2, (1,1-Dioxo-hexahydro-1lambda*6*-thiopyran-4-yl)-{(R)-3-[1-(6-methoxy-5-methyl-pyridin-3-yl)-2,3-dihydro-1H-pyrido[3,4-b][1,4]oxazin-7-yloxy]-pyrrolidin-1-yl}-methanone]
- IC50 (PI3K delta): 207 nM
- IC50 (PI3K alpha): 1200 nM

SMILES: COc1ncc(N2CC(C)Oc3ccc(O[C@H]4CCN(C(=O)C5CCOCC5)C4)cc32)cc1C#N (stereo partly drawn) [Example O1, 2-Methoxy-5-{2-methyl-6-[(S)-1-(tetrahydro-pyran-4-carbonyl)-pyrrolidin-3-yloxy]-2,3-dihydro-benzo[1,4]oxazin-4-yl}-nicotinonitrile]
- IC50 (PI3K delta): 53 nM
- IC50 (PI3K alpha): 4570 nM

SMILES: COc1ncc(N2CCOc3ccc(O[C@H]4CCN(C(=O)[C@H]5CCN(C(C)=O)C5)C4)cc32)cc1C#N [J, 5-{6-[(S)-1-((S)-1-Acetyl-pyrrolidine-3-carbonyl)-pyrrolidin-3-yloxy]-2,3-dihydro-benzo[1,4]-oxazin-4-yl}-2-methoxy-nicotinonitrile]
- IC50 (PI3K delta): 65 nM
- IC50 (PI3K alpha): 998 nM

SMILES: COc1ncc(N2CCOc3ccc(O[C@H]4CCN(C(=O)[C@@H]5CCN(C(C)=O)C5)C4)cc32)cc1C#N [K, 5-{6-[(S)-1-((R)-1-Acetyl-pyrrolidine-3-carbonyl)-pyrrolidin-3-yloxy]-2,3-dihydro-benzo[1,4]oxazin-4-yl}-2-methoxy-nicotinonitrile]
- IC50 (PI3K delta): < 3 nM
- IC50 (PI3K alpha): 393 nM

SMILES: COc1ncc(N2CCOc3ccc(O[C@H]4CCN(C(=O)[C@@H]5CCN(C)C5)C4)cc32)cc1C#N [L, 2-Methoxy-5-{6-[(S)-1-((R)-1-methyl-pyrrolidine-3-carbonyl)-pyrrolidin-3-yloxy]-2,3-dihydro-benzo[1,4]oxazin-4-yl}-nicotinonitrile]
- IC50 (PI3K delta): 13 nM
- IC50 (PI3K alpha): 538 nM

SMILES: Cc1cc(N2CCOc3ccc(O[C@H]4CCN(c5ccccn5)C4)cc32)cnc1S(C)(=O)=O [M, 4-(6-Methanesulfonyl-5-methyl-pyridin-3-yl)-6-((S)-1-pyridin-2-yl-pyrrolidin-3-yloxy)-3,4-dihydro-2H-benzo[1,4]oxazine]
- IC50 (PI3K delta): 6 nM
- IC50 (PI3K alpha): 304 nM

Continued, values first:

- IC50 (PI3K delta): 5 nM
- IC50 (PI3K alpha): 725 nM
SMILES: COc1ncc(N2CCOc3cnc(O[C@H]4CCN(C(=O)C5CCS(=O)(=O)CC5)C4)cc32)cc1F [Example F2, (1,1-Dioxo-hexahydro-1lambda*6*-thiopyran-4-yl)-{(S)-3-[1-(5-fluoro-6-methoxy-pyridin-3-yl)-2,3-dihydro-1H-pyrido[3,4-b][1,4]oxazin-7-yloxy]-pyrrolidin-1-yl}-methanone]

- IC50 (PI3K delta): 3 nM
- IC50 (PI3K alpha): 577 nM
SMILES: COc1ncc(N2CCOc3cnc(O[C@H]4CCN(C(=O)C5CCOCC5)C4)cc32)cc1C#N [Example F4, 2-Methoxy-5-{7-[(S)-1-(tetrahydro-pyran-4-carbonyl)-pyrrolidin-3-yloxy]-2,3-dihydro-pyrido[3,4-b][1,4]oxazin-1-yl}-nicotinonitrile]

- IC50 (PI3K delta): 25 nM
- IC50 (PI3K alpha): 444 nM
SMILES: COc1ncc(N2CCOc3cnc(O[C@H]4CCN(C(=O)c5cn(C)cn5)C4)cc32)cc1C#N [Example F5, 2-Methoxy-5-{7-[(S)-1-(1-methyl-1H-imidazole-4-carbonyl)-pyrrolidin-3-yloxy]-2,3-dihydro-pyrido[3,4-b][1,4]oxazin-1-yl}-nicotinonitrile]

- IC50 (PI3K delta): 3 nM
- IC50 (PI3K alpha): 783 nM
SMILES: Cc1cc(N2CCOc3cnc(O[C@H]4CCN(C(=O)C5CCOCC5)C4)cc32)cnc1S(C)(=O)=O [Example F6, {(S)-3-[1-(6-Methanesulfonyl-5-methyl-pyridin-3-yl)-2,3-dihydro-1H-pyrido[3,4-b][1,4]oxazin-7-yloxy]-pyrrolidin-1-yl}-(tetrahydro-pyran-4-yl)-methanone]

- IC50 (PI3K delta): 5 nM
- IC50 (PI3K alpha): 38 nM
SMILES: COc1ncc(N2CCOc3cnc(O[C@H]4CCN(C(=O)C5CCOCC5)C4)cc32)cc1C(F)F [Example F8, {(S)-3-[1-(5-Difluoromethyl-6-methoxy-pyridin-3-yl)-2,3-dihydro-1H-pyrido[3,4-b][1,4]oxazin-7-yloxy]-pyrrolidin-1-yl}-(tetrahydro-pyran-4-yl)-methanone]

- IC50 (PI3K delta): < 3 nM
- IC50 (PI3K alpha): 28 nM
SMILES: COCC(=O)N1CC[C@H](Oc2cc3c(cn2)OCCN3c2cnc(OC)c(C(F)F)c2)C1 [Example F9, 1-{(S)-3-[1-(5-Difluoromethyl-6-methoxy-pyridin-3-yl)-2,3-dihydro-1H-pyrido[3,4-b][1,4]oxazin-7-yloxy]-pyrrolidin-1-yl}-2-methoxy-ethanone]

- IC50 (PI3K delta): < 3 nM
- IC50 (PI3K alpha): 39 nM
SMILES: COc1ncc(N2CCOc3cnc(O[C@H]4CCN(C(=O)c5cn(C)cn5)C4)cc32)cc1C(F)F [Example F10, {(S)-3-[1-(5-Difluoromethyl-6-methoxy-pyridin-3-yl)-2,3-dihydro-1H-pyrido[3,4-b][1,4]oxazin-7-yloxy]-pyrrolidin-1-yl}-(1-methyl-1H-imidazol-4-yl)-methanone]

- IC50 (PI3K delta): 76 nM
- IC50 (PI3K alpha): 78 nM
SMILES: COCC(=O)N1CC[C@H](Oc2cc3c(cn2)OCCN3c2cnc(S(C)(=O)=O)c(C(F)F)c2)C1 [Example F11, 1-{(S)-3-[1-(5-Difluoromethyl-6-methanesulfonyl-pyridin-3-yl)-2,3-dihydro-1H-pyrido[3,4-b][1,4]oxazin-7-yloxy]-pyrrolidin-1-yl}-2-methoxy-ethanone]

- IC50 (PI3K delta): 24 nM
- IC50 (PI3K alpha): 704 nM
SMILES: COc1ncc(N2CCOc3cnc(O[C@H]4CCN(C(=O)C5CCS(=O)(=O)CC5)C4)cc32)cc1C#N [Example F13, 5-{7-[(S)-1-(1,1-Dioxo-hexahydro-1lambda*6*-thiopyran-4-carbonyl)-pyrrolidin-3-yloxy]-2,3-dihydro-pyrido[3,4-b][1,4]oxazin-1-yl}-2-methoxy-nicotinonitrile]

- IC50 (PI3K delta): 56 nM
- IC50 (PI3K alpha): 372 nM
SMILES: COc1ncc(N2CCOc3cnc(O[C@H]4CCN(C(=O)c5ncn(C)c5N)C4)cc32)cc1C(F)(F)F [Example G3, (5-Amino-1-methyl-1H-imidazol-4-yl)-{(S)-3-[1-(6-methoxy-5-trifluoromethyl-pyridin-3-yl)-2,3-dihydro-1H-pyrido[3,4-b][1,4]oxazin-7-yloxy]-pyrrolidin-1-yl}-methanone]

- IC50 (PI3K delta): 13 nM
- IC50 (PI3K alpha): 913 nM
SMILES: Cc1cc(N2CCOc3ccc(O[C@H]4CCN(C(=O)C5CCS(=O)(=O)C5)C4)cc32)cnc1S(C)(=O)=O (stereo partly drawn) [Example H2]

- IC50 (PI3K delta): 18 nM
- IC50 (PI3K alpha): 842 nM
SMILES: COc1ncc(N2CCOc3ccc(O[C@H]4CCN(C(=O)C5CCS(=O)(=O)CC5)C4)c(F)c32)cc1C [Example I1, (1,1-Dioxo-hexahydro-1lambda*6*-thiopyran-4-yl)-{(S)-3-[5-fluoro-4-(6-methoxy-5-methyl-pyridin-3-yl)-3,4-dihydro-2H-benzo[1,4]oxazin-6-yloxy]-pyrrolidin-1-yl}-methanone]

- IC50 (PI3K delta): 5 nM
- IC50 (PI3K alpha): 308 nM
SMILES: COc1ncc(N2CCOc3ccc(O[C@H]4CCN(C(=O)C5CCS(=O)(=O)CC5)C4)c(F)c32)cc1C(F)F [Example I2]

- IC50 (PI3K delta): 6 nM
- IC50 (PI3K alpha): 836 nM
SMILES: Cc1cc(N2CCOc3ccc(O[C@H]4CCN(C(=O)C5CCOCC5)C4)c(F)c32)cnc1S(C)(=O)=O [Example I3]
